Tested on: 947758-054-R-J2-PDC spheroid growth, percent test/control
Assay: Anticancer human tumor 947758-054-R-J2-PDC patient-derived colon adenocarcinoma cell line growth inhibition [CLK]
Details: spheroids with HUVEC and MSC; for IC50: curve of first compound; for viability, T/C: stronger effect = lower value
Outline: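 Patient-derived tumor cells grown as complex spheroids with HUVEC endothelial cells and mesenchymal stem cells, treated with drug combinations. Concentrations descend in half-log steps from near clinical Cmax, or from 10 microM if Cmax unknown.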

[1] = second compound 0.0316 µM, first compound 0.0316 µM
[2] = second compound 0.0316 µM, first compound 0.1 µM
[3] = second compound 0.0316 µM, first compound 0.316 µM
[4] = second compound 0.0316 µM, first compound 1 µM
[5] = second compound 0.0316 µM, first compound 3.16 µM
[6] = second compound 0.0316 µM, first compound 10 µM
[7] = second compound 0.1 µM, first compound 0.0316 µM
[8] = second compound 0.1 µM, first compound 0.1 µM
[9] = second compound 0.1 µM, first compound 0.316 µM
[10] = second compound 0.1 µM, first compound 1 µM
[11] = second compound 0.1 µM, first compound 3.16 µM
[12] = second compound 0.1 µM, first compound 10 µM
[13] = second compound 0.316 µM, first compound 0.0316 µM
[14] = second compound 0.316 µM, first compound 0.1 µM
[15] = second compound 0.316 µM, first compound 0.316 µM
[16] = second compound 0.316 µM, first compound 1 µM
[17] = second compound 0.316 µM, first compound 3.16 µM
[18] = second compound 0.316 µM, first compound 10 µM
[19] = second compound 1 µM, first compound 0.0316 µM
[20] = second compound 1 µM, first compound 0.1 µM
[21] = second compound 1 µM, first compound 0.316 µM
[22] = second compound 1 µM, first compound 1 µM
[23] = second compound 1 µM, first compound 3.16 µM
[24] = second compound 1 µM, first compound 10 µM
[25] = second compound 3.16 µM, first compound 0.0316 µM
[26] = second compound 3.16 µM, first compound 0.1 µM
[27] = second compound 3.16 µM, first compound 0.316 µM
[28] = second compound 3.16 µM, first compound 1 µM
[29] = second compound 3.16 µM, first compound 3.16 µM
[30] = second compound 3.16 µM, first compound 10 µM
[31] = second compound 10 µM, first compound 0.0316 µM
[32] = second compound 10 µM, first compound 0.1 µM
[33] = second compound 10 µM, first compound 0.316 µM
[34] = second compound 10 µM, first compound 1 µM
[35] = second compound 10 µM, first compound 3.16 µM
[36] = second compound 10 µM, first compound 10 µM
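Further: spheroids exposed to compounds for one week before readout.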
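Wherever viability, T/C is given: 100% = DMSO vehicle control wells.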

SMILES: C=C(F)C(=O)N1CCN(c2nc(OCC3CCCN3C)nc3c2CCN(c2cccc4cccc(Cl)c24)C3)CC1CC#N (stereo unspecified) + CNC(=O)c1ccc(Nc2nc(OC3CCCC3)c3c(-c4ccc5nc(C)oc5c4)c[nH]c3n2)c(OC)c1
- IC50 (second compound 0.0316 µM): 6.1 µM
- IC50 (second compound 0.1 µM): 4.95 µM
- IC50 (second compound 0.316 µM): 3.83 µM
- IC50 (second compound 1 µM): < 0.0316 µM
- IC50 (second compound 3.16 µM): < 0.0316 µM
- IC50 (second compound 10 µM): < 0.0316 µM
- viability, T/C [1]: 88.6%
- viability, T/C [2]: 66.7%
- viability, T/C [3]: 83.4%
- viability, T/C [4]: 99.7%
- viability, T/C [5]: 132%
- viability, T/C [6]: 16.8%
- viability, T/C [7]: 96.9%
- viability, T/C [8]: 71.1%
- viability, T/C [9]: 79.6%
- viability, T/C [10]: 98%
- viability, T/C [11]: 76.9%
- viability, T/C [12]: 7.83%
- viability, T/C [13]: 76.9%
- viability, T/C [14]: 65.9%
- viability, T/C [15]: 57.6%
- viability, T/C [16]: 77.2%
- viability, T/C [17]: 59.2%
- viability, T/C [18]: 3.73%
- viability, T/C [19]: 38.5%
- viability, T/C [20]: 34.6%
- viability, T/C [21]: 35.7%
- viability, T/C [22]: 54.8%
- viability, T/C [23]: 47.5%
- viability, T/C [24]: 0.18%
- viability, T/C [25]: 41.5%
- viability, T/C [26]: 34.3%
- viability, T/C [27]: 31.2%
- viability, T/C [28]: 47.8%
- viability, T/C [29]: 32.4%
- viability, T/C [30]: 0.49%
- viability, T/C [31]: 29.4%
- viability, T/C [32]: 33.3%
- viability, T/C [33]: 30%
- viability, T/C [34]: 30.2%
- viability, T/C [35]: 21.6%
- viability, T/C [36]: 0.36%

SMILES: C=CC(=O)N1CCN(c2nc(=O)n(-c3c(C)ccnc3C(C)C)c3nc(-c4c(O)cccc4F)c(F)cc23)C(C)C1 (stereo unspecified) + CNC(=O)c1ccc(Nc2nc(OC3CCCC3)c3c(-c4ccc5nc(C)oc5c4)c[nH]c3n2)c(OC)c1
- IC50 (second compound 0.0316 µM): > 10 µM
- IC50 (second compound 0.1 µM): > 10 µM
- IC50 (second compound 0.316 µM): 6.2 µM
- IC50 (second compound 1 µM): < 0.0316 µM
- IC50 (second compound 3.16 µM): < 0.0316 µM
- IC50 (second compound 10 µM): < 0.0316 µM
- viability, T/C [1]: 64.6%
- viability, T/C [2]: 69.5%
- viability, T/C [3]: 68.2%
- viability, T/C [4]: 70.9%
- viability, T/C [5]: 65.9%
- viability, T/C [6]: 51.8%
- viability, T/C [7]: 78.4%
- viability, T/C [8]: 72.3%
- viability, T/C [9]: 66.1%
- viability, T/C [10]: 75.5%
- viability, T/C [11]: 68%
- viability, T/C [12]: 51.3%
- viability, T/C [13]: 70.4%
- viability, T/C [14]: 68.8%
- viability, T/C [15]: 47.1%
- viability, T/C [16]: 80.7%
- viability, T/C [17]: 77.5%
- viability, T/C [18]: 36.7%
- viability, T/C [19]: 43.3%
- viability, T/C [20]: 45.8%
- viability, T/C [21]: 36.9%
- viability, T/C [22]: 54.5%
- viability, T/C [23]: 45%
- viability, T/C [24]: 20%
- viability, T/C [25]: 43.1%
- viability, T/C [26]: 38.1%
- viability, T/C [27]: 40.9%
- viability, T/C [28]: 40.9%
- viability, T/C [29]: 31.2%
- viability, T/C [30]: 16%
- viability, T/C [31]: 32.1%
- viability, T/C [32]: 28.1%
- viability, T/C [33]: 28.6%
- viability, T/C [34]: 25.7%
- viability, T/C [35]: 21.1%
- viability, T/C [36]: 15.1%

SMILES: COC1C=CCC(C)C(C)S(=O)(=O)NC(=O)c2ccc3c(c2)N(CC2CCC21)CC1(CCCc2cc(Cl)ccc21)CO3 (stereo unspecified) + CNC(=O)c1ccc(Nc2nc(OC3CCCC3)c3c(-c4ccc5nc(C)oc5c4)c[nH]c3n2)c(OC)c1
- IC50 (second compound 0.0316 µM): 7.66 µM
- IC50 (second compound 0.1 µM): 5.3 µM
- IC50 (second compound 0.316 µM): < 0.0316 µM
- IC50 (second compound 1 µM): < 0.0316 µM
- IC50 (second compound 3.16 µM): < 0.0316 µM
- IC50 (second compound 10 µM): < 0.0316 µM
- viability, T/C [1]: 75.6%
- viability, T/C [2]: 83.8%
- viability, T/C [3]: 90.3%
- viability, T/C [4]: 116%
- viability, T/C [5]: 95.3%
- viability, T/C [6]: 37.3%
- viability, T/C [7]: 73.4%
- viability, T/C [8]: 71.2%
- viability, T/C [9]: 55.5%
- viability, T/C [10]: 65.1%
- viability, T/C [11]: 72.1%
- viability, T/C [12]: 28.5%
- viability, T/C [13]: 61.8%
- viability, T/C [14]: 53.6%
- viability, T/C [15]: 37.2%
- viability, T/C [16]: 44.1%
- viability, T/C [17]: 49.2%
- viability, T/C [18]: 16.7%
- viability, T/C [19]: 37.5%
- viability, T/C [20]: 36.1%
- viability, T/C [21]: 24.4%
- viability, T/C [22]: 29.5%
- viability, T/C [23]: 26.4%
- viability, T/C [24]: 12.4%
- viability, T/C [25]: 28.3%
- viability, T/C [26]: 24.4%
- viability, T/C [27]: 21.8%
- viability, T/C [28]: 18.2%
- viability, T/C [29]: 18.1%
- viability, T/C [30]: 15.3%
- viability, T/C [31]: 29.4%
- viability, T/C [32]: 23.3%
- viability, T/C [33]: 13.2%
- viability, T/C [34]: 15.4%
- viability, T/C [35]: 10.6%
- viability, T/C [36]: 13.5%
